Measurements from PubChem BioAssay AID1508591.

Settings: rat; liver microsomes; pH 7.4; 15.0 min; 1.0 µM

half-life [min]	Compound
11	Cc1ccc(S(=O)(=O)Nc2ccc(C(=O)Nc3ncc(-c4ccccc4)s3)cc2)cc1
26	Fc1ccc(Nc2nc(-c3ccnc(N4CCCCC4)c3)nc3ccccc23)cc1F
1.85	COc1ccc2[nH]c(C[C@@H]3C[C@@H](C(C)C)[C@H](CNCc4ccccc4O)C=C3C)nc2n1
20.7	NC(=O)c1ccc(-c2ncc3cnc(-c4cccc(F)c4)cn23)cc1
> 30	COc1ccc(NC(=O)c2c(C)cccc2C)cc1[S+](=O)([O-])N(C)C
7.2	CN1C(=O)c2ccccc2[S@](=O)c2ccc(C(=O)NCCc3cccs3)cc21
2.02	CC1CCc2cc(F)ccc2N1C(=O)CSc1nnc2c(n1)[nH]c1ccccc12 (stereo not drawn)
9.7	Cc1cc(NS(=O)(=O)c2ccc(NC(=O)Cc3ccc(Cl)c(Cl)c3)cc2)no1
3.54	Cc1cccc(Nc2nc(NCc3ccco3)c3ccccc3n2)c1
> 30	CC(=O)Nc1ccc(S(=O)(=O)Nc2nccs2)cc1
2.1	Cc1cc(-c2nnc3n2CCCCC3)c(C)n1-c1cccc2ccccc12
3.11	COc1cccc(OC)c1C(=O)Nc1ccccc1C(=O)Nc1cccc(C(F)(F)F)c1
> 30	COC(=O)c1ccc2c(C(=Nc3ccc(N(C)C(=O)CN4CCN(C)CC4)cc3)c3ccccc3)c(O)[nH]c2c1
> 30	CCCS(=O)(=O)c1nc(NC2CC2)cc(-c2ccc3c(ccn3C3CC(C)(C)NC(C)(C)C3)c2)n1
> 30	O=C(Nc1ccccc1O)c1ccc(NC(=O)C2CC2)cc1
6.6	O=[N+]([O-])c1cccc(CSc2nc3ncc(Br)cc3[nH]2)c1
1.5	O=C(Nc1ccc2c(N3CCCCC3)ncnc2c1)c1cc(F)cc(F)c1
> 30	O=C1Nc2ccccc2/C1=C/c1cc(Cl)c(O)c(Cl)c1
17.3	FC(F)(F)c1ccc(CN2CCNc3cc(Nc4ccccc4)ncc3C2)cc1
24.7	N#CC1CCN(c2nc(-c3ccc(Br)cc3)cs2)CC1
2.3	O=C1CCCC2=C1C1(CCSCC1)N=C(Nc1nc3ccccc3o1)N2

half-life [min]	Compound
2.07	Cc1ccc(NC(=O)c2cc(S(=O)(=O)NCCC3=CCCCC3)ccc2F)cc1F
1	O=C(COC(=O)CCC(=O)c1cccs1)NCc1ccco1
> 30	Clc1ccc2ncc(-c3cccc(NC4CCNCC4)n3)n2c1
> 30	CCCCOc1ccc(CC(=O)NO)cc1
6.7	Cc1ccc(S(=O)(=O)Nc2cc3c(cc2C(=O)Nc2nc(-c4ccccc4)cs2)OCO3)cc1
> 30	CCN(CCN(C)C)C(=O)C1CCN(S(=O)(=O)c2c(C)noc2/C=C/c2ccccc2F)CC1
> 30	O=C(c1ccccc1)N1CCC(c2nn(-c3ccc(F)cc3)c(=O)[nH]2)CC1
> 30	O=S(=O)(c1ccc(Cl)cc1)c1ccccn1
> 30	O=C(Nc1ccccc1)C1CC(=O)N(c2n[nH]c3cc(Br)ccc23)C1 (stereo not drawn)
10.1	O=C(Nc1ccc2c(N3CCOCC3)ncnc2c1)c1cccc(Br)c1
7.49	COc1ccccc1C(=O)Nc1nnc(SCc2cc(=O)c3ccccc3[nH]2)s1
21	COC(=O)C1=C(C)NC(=O)CC1C(=O)Nc1ccc(Cl)cc1 (stereo not drawn)
2.6	Cc1ccc(-c2csc(NC(=O)c3ccccc3NS(=O)(=O)c3ccc(C)cc3)n2)cc1
6.4	Cc1nn(CCc2nc(-c3ccc4ccccc4c3)cs2)c2[nH]c(=O)cc(C(F)(F)F)c12
> 30	CC(=O)c1ccc(N2CCN(c3ccc(NC(=O)c4ccc(F)cc4)cc3C(=O)O)CC2)cc1
1.64	CN(Cc1ccccc1)C(=O)c1ccc(S(=O)(=O)Nc2ccccc2)cc1
2.9	Clc1ccc(-c2nnc(C3CCCCC3)o2)cc1
1.8	Cc1cccc(-n2cnc3cc(C(=O)N4CCCC(C(C)C)C4)ccc32)c1 (stereo not drawn)
9.1	c1ccc(C2=Nn3c(nnc3-c3ccncc3)SC2)cc1
5.48	CSc1ncc(Cl)c(C(=O)Nc2c(C)cccc2C)n1
> 30	O=C(NC1CC1)c1nc(-c2cccnc2)c2cnccn12

Compound	half-life [min]
CN1CC(CNC(=O)OCc2ccccc2)C[C@H]2c3cccc4c3c(cn4C)CC21 (stereo partly drawn)	14.3
